Assay results reported in patent publication US12138256B2, “Treatment of cardiopulmonary disorders” (Bayer Aktiengesellschaft, priority 2021, dated 2024).

System: sGC (cGMP)
Assay: Phase I, healthy male subjects, 7 days once daily inhalation: cGMP in blood samples (C-4.1)
Format: in vivo, human
Description: Healthy White male subjects, aged 18 to 45 years and with a body mass index (BMI) above/equal 18.5 and below/equal 29.9 kg/m2 were treated in a clinical pharmacological phase I study on seven days with inhaled once daily doses of 480 μg or 1000 μg or 2000 μg (2 capsules of 1000 μg) (nominal dose) of dry powder formulations of example 2 or Placebo. The subjects inhaled the drug powder from capsules (see under D-1, e.g. tables 22 and 23) inserted into a handheld inhalation device by one deep inhalative breath. The dry powder formulation of the drug is dispersed into the airstream and fine particles are transported into the deep parts of the lung where it is intended to cause a vasodilation of the blood vessels in PH patients for a substantial reduction of increased blood pressure in the central pulmonary blood vessels in PAH patients or other subtypes of PH. This effect cannot be shown in subjects with healthy lungs. In addition inhaled drug causes a dilation of the bronchial airways and thus also improves disease states of lung diseases in PH patients with pathological bronchoconstriction. This effect was measured via bodyplethysmography as reduction of Specific Airway Resistance in healthy subjects. After the deep inhalative breath the subjects hold breath for 2 seconds, so that the dry powder drug condenses from the airstream onto the surface of the deeper lung areas where it is deposited close to its site of intended pharmacological action. The drug dissolutes over the day and equilibrates the lung via lining fluid.
Drug activity in healthy men was controlled in the healthy subjects by analysing blood samples for cGMP, the immediate product of sGC pharmacological activation prior after the first and after the last drug inhalation of the 7 days treatment in comparison to measurements on the pretreatment day for all doses.
This prolonged activity in comparison to systemic drug concentration is caused by the mode of administration as inhaled dry powder, that deposits drug in the deeper part of the lung leading to an active drug concentration over 24 h after a once daily inhalation.
At 10 days after the first treatment, mean cGMP concentrations had returned close to the concentration observed at the pre-dosing day.

O=C(O)c1ccc(CCN(CCc2ccccc2OCc2ccc(-c3ccc(C(F)(F)F)cc3)cc2Cl)[C@H]2CCCc3nc(C(=O)O)ccc32)cc1 [example 2, (5S)-{[2-(4-Carboxyphenyl)ethyl][2-(2-{[3-chloro-4′-(trifluoromethyl)biphenyl-4-yl]methoxy}phenyl)-ethyl]amino}-5,6,7,8-tetrahydroquinoline-2-carboxylic acid]
cyclic guanosine monophosphate changes from baseline (480 μg once daily inhaled, 0 D 02 H 00 M): 1.73 ± 0.82 nmol/L | cyclic guanosine monophosphate changes from baseline (480 μg once daily inhaled, 0 D 04 H 00 M): 3.04 ± 1.39 nmol/L | cyclic guanosine monophosphate changes from baseline (480 μg once daily inhaled, 0 D 06 H 00 M): 3.33 ± 1.39 nmol/L | cyclic guanosine monophosphate changes from baseline (480 μg once daily inhaled, 0 D 08 H 00 M): 2.94 ± 1.38 nmol/L | cyclic guanosine monophosphate changes from baseline (480 μg once daily inhaled, 0 D 12 H 00 M): 2.10 ± 1.18 nmol/L | cyclic guanosine monophosphate changes from baseline (480 μg once daily inhaled, 0 D 15 H 00 M): 1.53 ± 1.50 nmol/L | cyclic guanosine monophosphate changes from baseline (480 μg once daily inhaled, 1 D 00 H 00 M): 0.84 ± 0.89 nmol/L | cyclic guanosine monophosphate changes from baseline (480 μg once daily inhaled, 2 D 00 H 00 M): 0.74 ± 1.59 nmol/L | cyclic guanosine monophosphate changes from baseline (480 μg once daily inhaled, 3 D 00 H 00 M): 1.00 ± 1.92 nmol/L | cyclic guanosine monophosphate changes from baseline (480 μg once daily inhaled, 4 D 00 H 00 M): 1.46 ± 1.24 nmol/L | cyclic guanosine monophosphate changes from baseline (480 μg once daily inhaled, 5 D 00 H 00 M): 1.50 ± 0.98 nmol/L | cyclic guanosine monophosphate changes from baseline (480 μg once daily inhaled, 6 D 00 H 00 M): 1.92 ± 1.21 nmol/L | cyclic guanosine monophosphate changes from baseline (480 μg once daily inhaled, 7 D 00 H 00 M): 1.68 ± 0.85 nmol/L | cyclic guanosine monophosphate changes from baseline (480 μg once daily inhaled, 7 D 02 H 00 M): 4.22 ± 2.29 nmol/L | cyclic guanosine monophosphate changes from baseline (480 μg once daily inhaled, 7 D 04 H 00 M): 5.39 ± 2.34 nmol/L | cyclic guanosine monophosphate changes from baseline (480 μg once daily inhaled, 7 D 06 H 00 M): 6.44 ± 2.26 nmol/L | cyclic guanosine monophosphate changes from baseline (480 μg once daily inhaled, 7 D 08 H 00 M): 5.19 ± 1.64 nmol/L | cyclic guanosine monophosphate changes from baseline (480 μg once daily inhaled, 7 D 12 H 00 M): 3.71 ± 1.79 nmol/L | cyclic guanosine monophosphate changes from baseline (480 μg once daily inhaled, 7 D 15 H 00 M): 3.04 ± 2.09 nmol/L | cyclic guanosine monophosphate changes from baseline (480 μg once daily inhaled, 8 D 00 H 00 M): 1.69 ± 2.65 nmol/L | cyclic guanosine monophosphate changes from baseline (480 μg once daily inhaled, 8 D 12 H 00 M): 0.69 ± 1.53 nmol/L | cyclic guanosine monophosphate changes from baseline (480 μg once daily inhaled, 9 D 00 H 00 M): 0.13 ± 1.97 nmol/L | cyclic guanosine monophosphate changes from baseline (480 μg once daily inhaled, 9 D 12 H 00 M): 1.10 ± 1.01 nmol/L | cyclic guanosine monophosphate changes from baseline (480 μg once daily inhaled, 10 D 00 H 00 M): -0.00 ± 0.64 nmol/L | cyclic guanosine monophosphate changes from baseline (480 μg, 0 D 00 H 00 M): 0.11 ± 1.10 nmol/L | cGMP, mean ± SD (480 μg, 0 D 00 H 00 M (baseline)): 5.51 ± 1.00 nmol/L | cGMP, mean ± SD (480 μg, 0 D 02 H 00 M): 7.24 ± 1.25 nmol/L | cGMP, mean ± SD (480 μg, 0 D 04 H 00 M): 8.56 ± 1.45 nmol/L | cGMP, mean ± SD (480 μg, 0 D 06 H 00 M): 8.84 ± 1.35 nmol/L | cGMP, mean ± SD (480 μg, 0 D 08 H 00 M): 8.46 ± 1.59 nmol/L | cGMP, mean ± SD (480 μg, 0 D 12 H 00 M): 7.61 ± 1.01 nmol/L | cGMP, mean ± SD (480 μg, 0 D 15 H 00 M): 7.04 ± 1.50 nmol/L | cGMP, mean ± SD (480 μg, 1 D 00 H 00 M): 6.36 ± 1.10 nmol/L | cGMP, mean ± SD (480 μg, 2 D 00 H 00 M): 6.26 ± 2.17 nmol/L | cGMP, mean ± SD (480 μg, 3 D 00 H 00 M (trough)): 6.51 ± 2.62 nmol/L | cGMP, mean ± SD (480 μg, 4 D 00 H 00 M (trough)): 6.97 ± 1.96 nmol/L | cGMP, mean ± SD (480 μg, 5 D 00 H 00 M (trough)): 7.01 ± 1.72 nmol/L | cGMP, mean ± SD (480 μg, 6 D 00 H 00 M (trough)): 7.43 ± 1.69 nmol/L | cGMP, mean ± SD (480 μg, 7 D 00 H 00 M (trough)): 7.19 ± 1.47 nmol/L | cGMP, mean ± SD (480 μg, 7 D 02 H 00 M): 9.73 ± 3.00 nmol/L | cGMP, mean ± SD (480 μg, 7 D 04 H 00 M): 10.90 ± 3.12 nmol/L | cGMP, mean ± SD (480 μg, 7 D 06 H 00 M): 11.96 ± 2.80 nmol/L | cGMP, mean ± SD (480 μg, 7 D 08 H 00 M): 10.70 ± 2.27 nmol/L | cGMP, mean ± SD (480 μg, 7 D 12 H 00 M): 9.22 ± 2.37 nmol/L | cGMP, mean ± SD (480 μg, 7 D 15 H 00 M): 8.56 ± 2.80 nmol/L | cGMP, mean ± SD (480 μg, 8 D 00 H 00 M): 7.20 ± 3.23 nmol/L | cGMP, mean ± SD (480 μg, 8 D 12 H 00 M): 6.20 ± 2.00 nmol/L | cGMP, mean ± SD (480 μg, 9 D 00 H 00 M): 5.64 ± 2.53 nmol/L | cGMP, mean ± SD (480 μg, 9 D 12 H 00 M): 6.61 ± 1.80 nmol/L | cGMP, mean ± SD (480 μg, 10 D 00 H 00 M): 5.51 ± 1.39 nmol/L | cGMP, mean ± SD (480 μg, −0 D 09 H 00 M (baseline)): 5.60 ± 1.08 nmol/L | cyclic guanosine monophosphate changes from baseline (480 μg, −0 D 09 H 00 M (pretreatment day)): 0.20 ± 1.59 nmol/L | cGMP, mean ± SD (480 μg, −0 D 12 H 00 M (baseline)): 5.62 ± 1.26 nmol/L | cyclic guanosine monophosphate changes from baseline (480 μg, −0 D 12 H 00 M (pretreatment day)): 0.22 ± 1.17 nmol/L | cGMP, mean ± SD (480 μg, −0 D 16 H 00 M (baseline)): 5.81 ± 1.09 nmol/L | cyclic guanosine monophosphate changes from baseline (480 μg, −0 D 16 H 00 M (pretreatment day)): 0.41 ± 0.96 nmol/L | cGMP, mean ± SD (480 μg, −0 D 18 H 00 M (baseline)): 5.61 ± 0.71 nmol/L | cyclic guanosine monophosphate changes from baseline (480 μg, −0 D 18 H 00 M (pretreatment day)): 0.21 ± 1.74 nmol/L | cGMP, mean ± SD (480 μg, −0 D 20 H 00 M (baseline)): 5.92 ± 0.83 nmol/L | cyclic guanosine monophosphate changes from baseline (480 μg, −0 D 20 H 00 M (pretreatment day)): 0.52 ± 0.95 nmol/L | cGMP, mean ± SD (480 μg, −0 D 22 H 00 M (baseline)): 6.57 ± 1.22 nmol/L | cyclic guanosine monophosphate changes from baseline (480 μg, −0 D 22 H 00 M (pretreatment day)): 1.17 ± 1.00 nmol/L | cGMP, mean ± SD (480 μg, −1 D 02 H 00 M (baseline)): 5.40 ± 1.41 nmol/L | cyclic guanosine monophosphate changes from baseline (1000 μg once daily inhaled, 0 D 02 H 00 M): 3.26 ± 2.04 nmol/L | cyclic guanosine monophosphate changes from baseline (1000 μg once daily inhaled, 0 D 04 H 00 M): 5.64 ± 2.54 nmol/L | cyclic guanosine monophosphate changes from baseline (1000 μg once daily inhaled, 0 D 06 H 00 M): 6.78 ± 2.79 nmol/L | cyclic guanosine monophosphate changes from baseline (1000 μg once daily inhaled, 0 D 08 H 00 M): 5.94 ± 2.65 nmol/L | cyclic guanosine monophosphate changes from baseline (1000 μg once daily inhaled, 0 D 12 H 00 M): 4.86 ± 2.91 nmol/L | cyclic guanosine monophosphate changes from baseline (1000 μg once daily inhaled, 0 D 15 H 00 M): 3.70 ± 2.59 nmol/L | cyclic guanosine monophosphate changes from baseline (1000 μg once daily inhaled, 1 D 00 H 00 M): 1.26 ± 1.98 nmol/L | cyclic guanosine monophosphate changes from baseline (1000 μg once daily inhaled, 2 D 00 H 00 M): 0.33 ± 1.99 nmol/L | cyclic guanosine monophosphate changes from baseline (1000 μg once daily inhaled, 3 D 00 H 00 M): 2.31 ± 2.68 nmol/L | cyclic guanosine monophosphate changes from baseline (1000 μg once daily inhaled, 4 D 00 H 00 M): 2.86 ± 2.63 nmol/L | cyclic guanosine monophosphate changes from baseline (1000 μg once daily inhaled, 5 D 00 H 00 M): 3.59 ± 2.51 nmol/L | cyclic guanosine monophosphate changes from baseline (1000 μg once daily inhaled, 6 D 00 H 00 M): 4.32 ± 2.82 nmol/L | cyclic guanosine monophosphate changes from baseline (1000 μg once daily inhaled, 7 D 00 H 00 M): 4.74 ± 2.98 nmol/L | cyclic guanosine monophosphate changes from baseline (1000 μg once daily inhaled, 7 D 02 H 00 M): 6.93 ± 2.99 nmol/L | cyclic guanosine monophosphate changes from baseline (1000 μg once daily inhaled, 7 D 04 H 00 M): 10.84 ± 2.91 nmol/L | cyclic guanosine monophosphate changes from baseline (1000 μg once daily inhaled, 7 D 06 H 00 M): 11.79 ± 3.70 nmol/L | cyclic guanosine monophosphate changes from baseline (1000 μg once daily inhaled, 7 D 08 H 00 M): 11.00 ± 4.58 nmol/L | cyclic guanosine monophosphate changes from baseline (1000 μg once daily inhaled, 7 D 12 H 00 M): 9.19 ± 5.26 nmol/L | cyclic guanosine monophosphate changes from baseline (1000 μg once daily inhaled, 7 D 15 H 00 M): 8.00 ± 4.41 nmol/L | cyclic guanosine monophosphate changes from baseline (1000 μg once daily inhaled, 8 D 00 H 00 M): 4.47 ± 3.81 nmol/L | cyclic guanosine monophosphate changes from baseline (1000 μg once daily inhaled, 8 D 12 H 00 M): 2.30 ± 3.05 nmol/L | cyclic guanosine monophosphate changes from baseline (1000 μg once daily inhaled, 9 D 00 H 00 M): 1.38 ± 2.59 nmol/L | cyclic guanosine monophosphate changes from baseline (1000 μg once daily inhaled, 9 D 12 H 00 M): 1.02 ± 2.24 nmol/L | cyclic guanosine monophosphate changes from baseline (1000 μg once daily inhaled, 10 D 00 H 00 M): 1.42 ± 2.87 nmol/L | cyclic guanosine monophosphate changes from baseline (1000 μg, 0 D 00 H 00 M): -0.11 ± 1.62 nmol/L | cGMP, mean ± SD (1000 μg, 0 D 00 H 00 M (baseline)): 4.91 ± 1.27 nmol/L | cGMP, mean ± SD (1000 μg, 0 D 02 H 00 M): 8.17 ± 1.07 nmol/L | cGMP, mean ± SD (1000 μg, 0 D 04 H 00 M): 10.56 ± 1.47 nmol/L | cGMP, mean ± SD (1000 μg, 0 D 06 H 00 M): 11.69 ± 1.86 nmol/L | cGMP, mean ± SD (1000 μg, 0 D 08 H 00 M): 10.86 ± 1.66 nmol/L | cGMP, mean ± SD (1000 μg, 0 D 12 H 00 M): 9.77 ± 2.11 nmol/L | cGMP, mean ± SD (1000 μg, 0 D 15 H 00 M): 8.61 ± 1.63 nmol/L | cGMP, mean ± SD (1000 μg, 1 D 00 H 00 M): 6.17 ± 1.05 nmol/L | cGMP, mean ± SD (1000 μg, 2 D 00 H 00 M): 5.24 ± 1.28 nmol/L | cGMP, mean ± SD (1000 μg, 3 D 00 H 00 M (trough)): 7.22 ± 2.04 nmol/L | cGMP, mean ± SD (1000 μg, 4 D 00 H 00 M (trough)): 7.77 ± 1.87 nmol/L
